Measured values published in US11484543B2, “Compositions and methods for diagnosing and treating diseases and disorders associated with mutant KCNJ5” (The Rockefeller University, priority 2017, dated 2022).
Where a chain is given by its changes, count along the chain named. pIC50: −log10 of the molar value. Where two headings read alike, the source gives them in different places.

Tests used:
Assay type in all cases: cell-based
KCNJ5^WT = biological target: T1, KCNJ5^WT (Homo sapiens, UniProt P48544); assay: Membrane potential assay (FLIPR dye) in inducible KCNJ5^WT HEK293 cells; conditions: 10-point dilution 20 to 0.0391 μM, N=3, four-parameter fit
T1 construct: expressed in transfected cells
T1 sequence (P48544 1-419): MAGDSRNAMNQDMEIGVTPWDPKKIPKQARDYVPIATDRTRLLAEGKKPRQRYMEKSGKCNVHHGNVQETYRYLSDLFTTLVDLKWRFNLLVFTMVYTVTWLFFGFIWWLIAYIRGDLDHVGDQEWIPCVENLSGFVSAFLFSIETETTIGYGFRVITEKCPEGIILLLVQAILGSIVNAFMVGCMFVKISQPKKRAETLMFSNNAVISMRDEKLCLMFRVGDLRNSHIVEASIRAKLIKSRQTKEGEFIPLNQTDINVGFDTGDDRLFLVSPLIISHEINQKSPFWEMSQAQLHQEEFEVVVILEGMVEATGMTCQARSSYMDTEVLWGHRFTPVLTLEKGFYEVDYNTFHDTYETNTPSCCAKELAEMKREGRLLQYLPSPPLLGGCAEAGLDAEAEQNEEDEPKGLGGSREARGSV
Protocol: (§1) Single copies of WT or mutant human KCNJ5 cDNAs expressed under the control of tetracycline-inducible promoter were introduced into HEK293 cells using the Flp-in T-Rex System (Invitrogen) according to the manufacturer's instructions. Cells were grown in selective media containing 10% Tet-system approved FBS (Clontech) until induction.
20 μL of WT cells were plated into sterile black with clear bottom tissue culture-treated 384-well plates (Corning) at a density of 10000 cells/well using a Multidrop Combi. Assay plates were centrifuged at 500 rpm for 10 seconds and incubated overnight at 37° C. in a humidified 5% CO2 incubator. After the overnight incubation, 1 μL of tetracycline (final conc. 1 μg/mL) was added to all wells by Multidrop Combi to induce KCNJ5. Assay plates were centrifuged at 500 rpm for 10 seconds and incubated overnight at 37° C. in a humidified 5% CO2 incubator. The next day, 10 μL of medium was removed from each well using a PlateMate Plus (Thermo Scientific). 10 μL of Blue Formula FLIPR membrane potential dye (Molecular Devices) was added to cells using a Multichannel pipettor. Assay plates were incubated for 30 minutes. at 37° C. After incubation, 20 nL was transferred twice from the compound source plate to the cell assay plate using an Aquarius with a 384-well pin tool for a total transfer volume of 40 nL and a final DMSO concentration of 0.2%. 1 μL of 20 mM BaCl2 was added to positive control wells using a Multichannel pipettor. The assay plate was incubated 20 minutes at room temperature in the dark.
Changes in membrane potential were detected using a well-established fluorescence-based measure of membrane potential (FIG. 4).

KCNJ5^L168R = biological target: T2, KCNJ5^L168R (Homo sapiens, UniProt P48544, L168R); assay: Cell viability assay (ATP, CellTiter-Glo): rescue of KCNJ5^L168R-induced lethality in inducible HEK293 cells; conditions: for pIC50 / L168R maximum inhibition / L168R minimum inhibition / L168R IC50: 10-point dilution 20 to 0.0391 μM, N=3, four-parameter fit; for dose response on KCNJ5^L168R: tested at 1.1, 3.3 and 10 μM
T2 construct: expressed in transfected cells
T2 sequence (P48544 1-419 L168R): T1 sequence (P48544 1-419) with L168R
Protocol: as §1, with “WT or mutant human KCNJ5 cDNAs (Choi et al., 2011, Science 331:768-772) were subcloned into the pcDNA5/FRT/TO vector using BamHI and HindIII. Single” for “Single”
(§2) Assay plates were centrifuged and incubated overnight at 37° C. 20 nL was transferred from the compound source plate to the cell assay plate using an Aquarius (Tecan) with a 384-well pin tool (V&P Scientific). The final concentration of compound for screening was 10 μM and the final DMSO concentration was 0.1%. 1 μL of tetracycline (final concentration 1 μg/mL) was added to compound containing and negative control wells by Multidrop Combi to induce expression. 1 μL of media was added to positive control wells. Assay plates were centrifuged and incubated for 72 hours at 37° C., 5% CO2. CellTiter-Glo (Promega) was used to measure cell viability in the assay wells according to the manufacturer's instructions. 10 μL/well of CellTiter-Glo reagent was added to the assay plates using a MultiDrop Combi. The plates were shaken on a Thermomixer R (Eppendorf) at 1100 rpm for 1 minute and incubated in the dark for 10 minutes at room temperature. Luminescence was read on an Envision plate reader (PerkinElmer) with 0.3 second sampling time per well. Raw data (luminescence counts per second) was normalized to percent effect by the formula 100−(((sample−negative control mean)/(positive control mean−negative control mean))*100).
(§3) Data was analyzed using the programs Excel (Microsoft) and Prism (GraphPad). Errors are SD unless otherwise indicated in the legend. Dose-response curves were fitted with a four-parameter logistic equation: F(x)=D+(A−D)/(1+(x/C)^B), with A=minimum inhibition B=Hill's slope C=inflection point D=maximum inhibition Synthesis of Macrolide Derivatives
(§4) Cellular ATP levels were measured as a proxy for cell viability, using a commercially available luciferase assay (Crouch et al., 1993, Proc. Natl. Acad. Sci. U.S.A. 109:2533-2538).
(§5) Conditions were designed to maximize reproducibility and the signal-to-background ratios (S/B) (Zhang et al., 1999, J. Biomol. Screen 4:67-73) comparing ATP level in uninduced and induced cells. Screening was performed in 384-well plates; compounds were added 24 hours after plating, and channel expression was induced immediately after compound addition. ATP levels were measured 72 hours after induction.

KCNJ5^G151R = biological target: T3, KCNJ5^G151R (Homo sapiens, UniProt P48544, G151R); assay: cell-based; conditions: for G151R maximum inhibition / G151R minimum inhibition / pIC50: 10-point dilution 20 to 0.0391 μM, N=3, four-parameter fit; for dose response on KCNJ5^G151R: tested at 1.1, 3.3 and 10 μM; for % effect (1) / % effect (2) / mean % effect / activity against KCNJ5^G151R in the primary screen / viability at 10 µM: 10 μM
T3 construct: expressed in transfected cells
T3 sequence (P48544 1-419 G151R): T1 sequence (P48544 1-419) with G151R
Protocol: as §1, with “WT or mutant human KCNJ5 cDNAs (Choi et al., 2011, Science 331:768-772) were subcloned into the pcDNA5/FRT/TO vector using BamHI and HindIII. Single” for “Single”
as §2, §3, §4, §5
Levels of ATP in uninduced and induced cells without added test compound defined 100% and 0% effect, respectively, and served as a proxy for lethality.

[1] = ATP level 72 h after induction, uninduced = 100%, induced = 0% effect, first of the two runs (primary screen / hit pick)
[2] = ATP level 72 h after induction, uninduced = 100%, induced = 0% effect, second of the two runs (primary screen / hit pick, confirmatory testing)
[3] = mean of primary screen and hit pick
[4] = HEK293, 72 h, mean of primary screen and hit pick, read-out: mean % effect
[5] = HEK293, ATP level 72 h after induction, uninduced = 100%, induced = 0% effect, first of the two runs (primary screen / hit pick), read-out: % effect (1)
[6] = HEK293, ATP level 72 h after induction, uninduced = 100%, induced = 0% effect, second of the two runs (primary screen / hit pick, confirmatory testing), read-out: % effect (2)

## CC[C@H]1OC(=O)[C@H](C)[C@@H](O[C@H]2C[C@@](C)(OC)[C@@H](O)[C@H](C)O2)[C@H](C)[C@@H](O[C@@H]2O[C@H](C)C[C@H](N(C)C)[C@H]2O)[C@](C)(O)C[C@@H](C)C(=O)[C@H](C)[C@@H](O)[C@H]1C [Erythromycin B, erythromycin B]
KCNJ5^WT
  WT IC50: No fit
KCNJ5^L168R
  pIC50: 5.33
  L168R maximum inhibition: 80.00%
  L168R minimum inhibition: 1.62%
KCNJ5^G151R
  G151R maximum inhibition: 84.36%
  G151R minimum inhibition: 7.15%
  pIC50: 5.91

## CC[C@H]1OC(=O)[C@H](C)[C@@H](O[C@H]2C[C@@](C)(OC)[C@@H](O)[C@H](C)O2)[C@H](C)[C@@H](O[C@@H]2O[C@H](C)C[C@H](N(C)C)[C@H]2O)[C@](C)(O)C[C@@H](C)[C@@H]2N[C@@H](COCCOC)O[C@H]([C@H]2C)[C@]1(C)O [Dirithromycin, dirithromycin]
KCNJ5^WT
  WT IC50: No fit
KCNJ5^L168R
  L168R IC50: No fit
KCNJ5^G151R
  G151R maximum inhibition: 18.29%
  G151R minimum inhibition: 1.31%
  pIC50: 4.80

## CC[C@H]1OC(=O)[C@H](C)[C@@H](O[C@H]2C[C@@](C)(OC)[C@@H](O)[C@H](C)O2)[C@H](C)[C@@H](O[C@@H]2O[C@H](C)C[C@H](N(C)C)[C@H]2O)[C@](C)(O)C[C@@H](C)C(=NO)[C@H](C)[C@@H](O)[C@]1(C)O [Erythromycin A Oxime, erythromycin A oxime]
KCNJ5^WT
  WT IC50: No fit
KCNJ5^L168R
  pIC50: 5.09
  L168R maximum inhibition: 60.00%
  L168R minimum inhibition: 0.65%
  dose response on KCNJ5^L168R: showed a dose response
KCNJ5^G151R
  G151R maximum inhibition: 84.11%
  G151R minimum inhibition: 2.49%
  pIC50: 5.54

## CC[C@H]1OC(=O)[C@H](C)[C@@H](O[C@H]2C[C@@](C)(OC)[C@@H](O)[C@H](C)O2)[C@H](C)[C@@H](O[C@@H]2O[C@H](C)C[C@H](N(C)C)[C@H]2O)[C@@]2(C)C[C@@H](C)[C@@]3(O[C@@]1(C)[C@H](O)[C@H]3C)O2 [Anhydroerythromycin A, anhydroerythromycin A]
KCNJ5^WT
  WT IC50: No fit
KCNJ5^L168R
  L168R IC50: No fit
KCNJ5^G151R
  G151R maximum inhibition: 60.00%
  G151R minimum inhibition: 5.61%
  pIC50: 5.07

## CCN(CC)CCN1c2ccccc2Sc2ccc3ccccc3c21 [NSC18883]
KCNJ5^L168R
  dose response on KCNJ5^L168R: either high IC50 values or low maximum inhibition
KCNJ5^G151R
  dose response on KCNJ5^G151R: potent inhibitors

## C1CCC(N=C(NC23CC4CC(CC(C4)C2)C3)N2CCOCC2)CC1.Cl [YU224116, U-37883A-HCl]
KCNJ5^L168R
  dose response on KCNJ5^L168R: either high IC50 values or low maximum inhibition
KCNJ5^G151R; [1]
  % effect (1): 49.9%
KCNJ5^G151R; [2]
  % effect (2): 65.8%
KCNJ5^G151R; [3]
  mean % effect: 57.9%
KCNJ5^G151R
  dose response on KCNJ5^G151R: potent inhibitors

## COc1ccc(NC(=O)c2c(C)oc3ccc(O)c(CN4CCCC(C)C4)c23)cc1 (stereo not shown) [YU164351]
KCNJ5^G151R; [1]
  % effect (1): 77.7%
KCNJ5^G151R; [2]
  % effect (2): 44.0%
KCNJ5^G151R; [3]
  mean % effect: 60.8%

## Cc1ccc(NC(=O)c2c(C)oc3ccc(O)c(CN4CCCCCC4)c23)cc1 [YU164427]
KCNJ5^G151R; [1]
  % effect (1): 36.0%
KCNJ5^G151R; [2]
  % effect (2): 48.0%
KCNJ5^G151R; [3]
  mean % effect: 42.0%

## CO[C@@H]1[C@@H](O[C@@H]2O[C@H](C)[C@@H](O[C@H]3C[C@@](C)(O)[C@@H](OC(=O)CC(C)C)[C@H](C)O3)[C@H](N(C)C)[C@H]2O)[C@@H](CC=O)C[C@@H](C)[C@@H](O)/C=C/C=C/C[C@@H](C)OC(=O)C[C@H]1O [kitasamycin]
KCNJ5^G151R
  activity against KCNJ5^G151R in the primary screen: little or no activity

## CC(=O)N(C)c1c(I)cc(I)c(OC(C)C(=O)O)c1I (stereo not shown) [YU155938]
KCNJ5^G151R; [1]
  % effect (1): 83.4%
KCNJ5^G151R; [2]
  % effect (2): 47.9%
KCNJ5^G151R; [3]
  mean % effect: 65.7%

## C[C@]12CC[C@@H]3c4ccc(O)cc4C[C@@H](CCCCCCCCC[S+]([O-])CCCC(F)(F)C(F)(F)F)[C@H]3[C@@H]1CC[C@@H]2O (stereo partly shown) [YU221408, Fulvestrant]
KCNJ5^G151R; [4]
  viability at 10 µM: 52.3%
KCNJ5^G151R; [5]
  viability at 10 µM: 65%
KCNJ5^G151R; [6]
  viability at 10 µM: 39.6%

## c1cncnc1 [YU221968, Pyrimidine]
KCNJ5^G151R; [4]
  viability at 10 µM: 81.9%
KCNJ5^G151R; [5]
  viability at 10 µM: 77.2%
KCNJ5^G151R; [6]
  viability at 10 µM: 86.6%

## Cc1oc2ccc(O)c(CN3CCC(C)CC3)c2c1C(=O)Nc1ccccc1 [YU164362]
KCNJ5^G151R; [1]
  % effect (1): 62.7%
KCNJ5^G151R; [2]
  % effect (2): 39.1%
KCNJ5^G151R; [3]
  mean % effect: 50.9%

## CC[C@@H]1C=CC=CC[C@H](C)[C@@H](O)[C@@H](C)C(=O)[C@H](C)[C@@H](O)[C@H](C)C(=O)[C@H](C)[C@@H](O)[C@H](C)C=CC(=O)O[C@H]2[C@@H](C)[C@@H](CC1)O[C@@]1(CC[C@@H](C)[C@@H](C[C@H](C)O)O1)[C@@H]2C [oligomycin C]
KCNJ5^G151R
  activity against KCNJ5^G151R in the primary screen: little or no activity
